Assay results taken from patent US11174232B2, “Substituted heterocyclyl derivatives as CDK inhibitors” (Aurigene Discovery Technologies Limited, priority 2015, dated 2021).

Target: CDK7/CycH/MNAT1 (Homo sapiens (Human), UniProt P50613)
Assay: Biochemical Assay for CDK7 (TR-FRET kinase assay)
Details: 60 min pre-incubation with kinase, 1 mM ATP; for inhibition at 10 µM: 10 μM compound
Procedure: Biochemical Assay for CDK7:
The ability of compounds to inhibit CDK7 kinase activity was tested in a TR-FRET assay using 5 nM of CDK7/CycH/MNAT1 obtained from Invitrogen, USA. Test compounds were pre-incubated with the kinase at room temperature for 60 min. After the incubation, substrate mix [100 nM Ultra-light MBP (Perkin Elmer, USA) and 1 mM ATP (Sigma)] was added. The above reaction was stopped by the addition of 40 mM EDTA after 60 minutes of kinase reaction. 1 nM Eu-labelled antiphospho-MBP antibody [Perkin Elmer, USA] was added, mixed well and the fluorescence emission at 615 nm and 665 nm [excitation at 340 nm] was measured. The final DMSO concentration in the assay was 1%. For IC50 determination, appropriate concentrations were made by ⅓^rd serial dilutions of 10 mM DMSO stock solution of test compound. All the fluorescence measurements were made in a Victor 3 Multilabel Counter [Perkin Elmer, USA]. The IC50 was determined by fitting the dose response data to sigmoidal curve fitting equation using GraphPad Prism software V5. To identify compounds that inhibit CDK7 irreversibly, time depended inhibition studies were carried by pre-incubating compound with the enzyme at three time points (20, 60 and 180 min) and carrying out assay as described above.
The compounds were screened by the above mentioned assay procedure.

Chain of CDK7/CycH/MNAT1 (P50613 whole entry): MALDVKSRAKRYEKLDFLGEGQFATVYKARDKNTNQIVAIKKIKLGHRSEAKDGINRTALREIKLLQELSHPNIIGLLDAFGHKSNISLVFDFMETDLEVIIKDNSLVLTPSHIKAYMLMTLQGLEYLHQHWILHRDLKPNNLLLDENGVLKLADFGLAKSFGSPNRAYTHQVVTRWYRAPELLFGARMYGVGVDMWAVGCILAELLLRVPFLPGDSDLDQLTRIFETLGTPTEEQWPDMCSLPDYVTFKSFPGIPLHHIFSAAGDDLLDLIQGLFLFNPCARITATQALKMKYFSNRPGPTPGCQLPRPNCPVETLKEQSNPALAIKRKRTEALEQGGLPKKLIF
Chain of CDK7/CycH/MNAT1 (P51946 whole entry partner): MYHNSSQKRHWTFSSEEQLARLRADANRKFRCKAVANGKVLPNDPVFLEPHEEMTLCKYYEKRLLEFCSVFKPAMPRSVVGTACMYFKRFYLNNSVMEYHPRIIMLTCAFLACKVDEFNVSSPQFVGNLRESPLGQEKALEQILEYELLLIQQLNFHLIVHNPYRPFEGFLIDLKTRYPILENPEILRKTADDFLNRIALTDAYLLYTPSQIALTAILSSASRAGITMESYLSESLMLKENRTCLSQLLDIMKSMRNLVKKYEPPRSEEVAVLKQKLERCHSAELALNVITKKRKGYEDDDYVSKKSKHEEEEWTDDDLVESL
Chain of CDK7/CycH/MNAT1 (P51948 whole entry partner): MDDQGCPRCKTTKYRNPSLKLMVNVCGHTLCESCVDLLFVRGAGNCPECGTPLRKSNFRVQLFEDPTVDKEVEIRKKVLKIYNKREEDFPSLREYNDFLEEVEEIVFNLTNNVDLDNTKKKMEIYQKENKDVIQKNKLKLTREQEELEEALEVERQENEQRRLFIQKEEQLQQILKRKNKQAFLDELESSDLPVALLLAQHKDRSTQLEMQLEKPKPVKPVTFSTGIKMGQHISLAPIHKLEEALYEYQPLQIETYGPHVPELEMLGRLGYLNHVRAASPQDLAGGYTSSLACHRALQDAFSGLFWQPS

inhibition at 10 µM	IC50	Compound
91%	< 0.025 µM	CC(C(=O)Nc1cc(C2CC2)[nH]n1)c1cccc(-c2ccc(NC(=O)/C=C/CN3CCCC3)nc2)c1 (centres unmarked) [Compound 52, (E)-N-(5-(3-(1-((5-cyclopropyl-1H-pyrazol-3-yl)amino)-1-oxopropan-2-yl)phenyl)pyridin-2-yl)-4-(pyrrolidin-1-yl)but-2-enamide]
99%	0.025 to 0.1 µM	CC(C(=O)Nc1cc(C2CC2)[nH]n1)c1cccc(-c2ccc(NC(=O)/C=C/CN3CCOCC3)nc2F)c1 (centres unmarked) [Compound 59, (E)-N-(5-(3-(1-((5-cyclopropyl-1H-pyrazol-3-yl)amino)-1-oxopropan-2-yl)phenyl)-6-fluoropyridin-2-yl)-4-morpholinobut-2-enamide]
81%	> 0.1 µM	CON(C)C/C=C/C(=O)Nc1ccc(-c2cccc(C(C)C(=O)Nc3cc(C4CC4)[nH]n3)c2)cn1 (centres unmarked) [Compound 62, (E)-N-(5-(3-(1-((5-cyclopropyl-1H-pyrazol-3-yl)amino)-1-oxopropan-2-yl)phenyl)pyridin-2-yl)-4-(methoxy(methyl)amino)but-2-enamide]
94%	0.025 to 0.1 µM	CC(C(=O)Nc1cc(C2CC2)[nH]n1)c1cccc(-c2ccc(NC(=O)/C=C/CN3CCC(F)C3)c(F)n2)c1 (centres unmarked) [Compound 64, (E)-N-(6-(3-(1-((5-cyclopropyl-1H-pyrazol-3-yl)amino)-1-oxopropan-2-yl)phenyl)-2-fluoropyridin-3-yl)-4-(3-fluoropyrrolidin-1-yl)but-2-enamide]
87%	0.025 to 0.1 µM	CC(C(=O)Nc1cc(C2CC2)[nH]n1)c1cccc(-c2ccc(NC(=O)/C=C/Cn3ccnc3)nc2)c1 (centres unmarked) [Compound 69, (E)-N-(5-(3-(1-((5-cyclopropyl-1H-pyrazol-3-yl)amino)-1-oxopropan-2-yl)phenyl)pyridin-2-yl)-4-(1H-imidazol-1-yl)but-2-enamide]
79%	> 0.1 µM	C=CC(=O)NCc1ccc(-c2cccc(C(C)C(=O)Nc3cc(C4CC4)[nH]n3)c2)cn1 (centres unmarked) [Compound 74, N-((5-(3-(1-((5-cyclopropyl-1H-pyrazol-3-yl)amino)-1-oxopropan-2-yl)phenyl)pyridin-2-yl)methyl)acrylamide]
78%	> 0.1 µM	C=CC(=O)Nc1ccc(-c2cccc(C(C)C(=O)Nc3cc(C4CC4)[nH]n3)c2)c(C)c1 (centres unmarked) [Compound 75, N-(3′-(1-((5-cyclopropyl-1H-pyrazol-3-yl)amino)-1-oxopropan-2-yl)-2-methyl-[1,1′-biphenyl]-4-yl)acrylamide]
98%	< 0.025 µM	C=CC(=O)N1CCc2cc(-c3cccc(C(C)C(=O)Nc4cc(C5CC5)[nH]n4)c3)ccc21 (centres unmarked) [Compound 76, 2-(3-(1-acryloylindolin-5-yl)phenyl)-N-(5-cyclopropyl-1H-pyrazol-3-yl)propanamide]
98%	0.025 to 0.1 µM	COC[C@@H]1C[C@H](F)CN1C/C=C/C(=O)Nc1ccc(-c2cccc(C(C)C(=O)Nc3cc(C4CC4)[nH]n3)c2)cn1 (stereo partly drawn) [Compound 77, (E)-N-(5-(3-(1-((5-cyclopropyl-1H-pyrazol-3-yl)amino)-1-oxopropan-2-yl)phenyl)pyridin-2-yl)-4-((2S,4S)-4-fluoro-2-(methoxymethyl)pyrrolidin-1-yl)but-2-enamide]
100%	0.025 to 0.1 µM	CC(C(=O)Nc1cc(C2CC2)[nH]n1)c1cccc(-c2ccc(NC(=O)/C=C/CN3CCC(C#N)C3)nc2)c1 (centres unmarked) [Compound 78, (E)-4-(3-cyanopyrrolidin-1-yl)-N-(5-(3-(1-((5-cyclopropyl-1H-pyrazol-3-yl)amino)-1-oxopropan-2-yl)phenyl)pyridin-2-yl)but-2-enamide]

The remaining lines, values behind:

Compound	inhibition at 10 µM	IC50
CC(C(=O)Nc1cc(C2CC2)[nH]n1)c1cccc(-c2ccc(NC(=O)/C=C/CN3CC[C@H](F)C3)nc2)c1 (stereo partly drawn) [Compound 46, (E)-N-(5-(3-(1-((5-cyclopropyl-1H-pyrazol-3-yl)amino)-1-oxopropan-2-yl)phenyl)pyridin-2-yl)-4-((S)-3-fluoropyrrolidin-1-yl)but-2-enamide]	95%	< 0.025 µM
CC(C(=O)Nc1cc(C2CC2)[nH]n1)c1cccc(-c2ccc(NC(=O)/C=C/CN3CC[C@@H](F)C3)nc2)c1 (stereo partly drawn) [Compound 49, (E)-N-(5-(3-(1-((5-cyclopropyl-1H-pyrazol-3-yl)amino)-1-oxopropan-2-yl)phenyl)pyridin-2-yl)-4-((R)-3-fluoropyrrolidin-1-yl)but-2-enamide]	89%	< 0.025 µM
CCN(CC)C/C=C/C(=O)Nc1ccc(-c2cccc(C(C)C(=O)Nc3cc(C4CC4)[nH]n3)c2)cn1 (centres unmarked) [Compound 55, (E)-N-(5-(3-(1-((5-cyclopropyl-1H-pyrazol-3-yl)amino)-1-oxopropan-2-yl)phenyl)pyridin-2-yl)-4-(diethylamino)but-2-enamide]	95%	< 0.025 µM
CC(C)C(C(=O)Nc1cc(C2CC2)[nH]n1)c1cccc(-c2ccc(NC(=O)/C=C/CN(C)C)nc2)c1 (centres unmarked) [Compound 56, (E)-N-(5-(3-(1-((5-cyclopropyl-1H-pyrazol-3-yl)amino)-3-methyl-1-oxobutan-2-yl)phenyl)pyridin-2-yl)-4-(dimethylamino)but-2-enamide]	96%	< 0.025 µM
CC(C(=O)Nc1cc(C2CC2)[nH]n1)c1cccc(-c2ccc(NC(=O)/C=C/CN3CCCC(F)C3)nc2)c1 (centres unmarked) [Compound 57, (E)-N-(5-(3-(1-((5-cyclopropyl-1H-pyrazol-3-yl)amino)-1-oxopropan-2-yl)phenyl)pyridin-2-yl)-4-(3-fluoropiperidin-1-yl)but-2-enamide]	98%	< 0.025 µM
CC(C(=O)Nc1cc(C2CC2)[nH]n1)c1cccc(-c2ccc(NC(=O)/C=C/CN3CCOCC3)c(F)n2)c1 (centres unmarked) [Compound 58, (E)-N-(6-(3-(1-((5-cyclopropyl-1H-pyrazol-3-yl)amino)-1-oxopropan-2-yl)phenyl)-2-fluoropyridin-3-yl)-4-morpholinobut-2-enamide]	90%	> 0.1 µM
CC(C(=O)Nc1cc(C2CC2)[nH]n1)c1cccc(-c2cncc(NC(=O)/C=C/CN3CCOCC3)c2)c1 (centres unmarked) [Compound 60, (E)-N-(5-(3-(1-((5-cyclopropyl-1H-pyrazol-3-yl)amino)-1-oxopropan-2-yl)phenyl)pyridin-3-yl)-4-morpholinobut-2-enamide]	99%	0.025 to 0.1 µM
CC(C(=O)Nc1cc(C2CC2)[nH]n1)c1cccc(-c2cccc(NC(=O)/C=C/CN3CCOCC3)c2)c1 (centres unmarked) [Compound 61, (E)-N-(3′-(1-((5-cyclopropyl-1H-pyrazol-3-yl)amino)-1-oxopropan-2-yl)-[1,1′-biphenyl]-3-yl)-4-morpholinobut-2-enamide]	92%	> 0.1 µM
CC(C(=O)Nc1cc(C2CC2)[nH]n1)c1cccc(-c2cnc(NC(=O)/C=C/CN3CCOCC3)c(F)c2)c1 (centres unmarked) [Compound 63, (E)-N-(5-(3-(1-((5-cyclopropyl-1H-pyrazol-3-yl)amino)-1-oxopropan-2-yl)phenyl)-3-fluoropyridin-2-yl)-4-morpholinobut-2-enamide]	98%	0.025 to 0.1 µM
C=CC(=O)Nc1ccc(-c2cccc(C(C)C(=O)Nc3cc(C4CC4)[nH]n3)c2)cc1OC (centres unmarked) [Compound 65, N-(3′-(1-((5-cyclopropyl-1H-pyrazol-3-yl)amino)-1-oxopropan-2-yl)-3-methoxy-[1,1′-biphenyl]-4-yl)acrylamide]	94%	> 0.1 µM
C=CC(=O)Nc1ccc(-c2cccc(C(C)C(=O)Nc3cc(C4CC4)[nH]n3)c2)cc1C (centres unmarked) [Compound 66, N-(3′-(1-((5-cyclopropyl-1H-pyrazol-3-yl)amino)-1-oxopropan-2-yl)-3-methyl-[1,1′-biphenyl]-4-yl)acrylamide]	88%	> 0.1 µM
C=CC(=O)Nc1c(C)cc(-c2cccc(C(C)C(=O)Nc3cc(C4CC4)[nH]n3)c2)cc1C (centres unmarked) [Compound 67, N-(3′-(1-((5-cyclopropyl-1H-pyrazol-3-yl)amino)-1-oxopropan-2-yl)-3,5-dimethyl-[1,1′-biphenyl]-4-yl)acrylamide]	79%	> 0.1 µM
COCCN(C)C/C=C/C(=O)Nc1ccc(-c2cccc(C(C)C(=O)Nc3cc(C4CC4)[nH]n3)c2)cn1 (centres unmarked) [Compound 68, (E)-N-(5-(3-(1-((5-cyclopropyl-1H-pyrazol-3-yl)amino)-1-oxopropan-2-yl)phenyl)pyridin-2-yl)-4-((2-methoxyethyl)(methyl)amino)but-2-enamide]	95%	< 0.025 µM
COC[C@@H]1CCCN1C/C=C/C(=O)Nc1ccc(-c2cccc(C(C)C(=O)Nc3cc(C4CC4)[nH]n3)c2)cn1 (stereo partly drawn) [Compound 70, (E)-N-(5-(3-(1-((5-cyclopropyl-1H-pyrazol-3-yl)amino)-1-oxopropan-2-yl)phenyl)pyridin-2-yl)-4-((S)-2-(methoxymethyl)pyrrolidin-1-yl)but-2-enamide]	81%	0.025 to 0.1 µM
C=CC(=O)Nc1ccc(-c2cccc(C(C)C(=O)Nc3cc(C4CC4)[nH]n3)c2)c(OC)c1 (centres unmarked) [Compound 73, N-(3′-(1-((5-cyclopropyl-1H-pyrazol-3-yl)amino)-1-oxopropan-2-yl)-2-methoxy-[1,1′-biphenyl]-4-yl)acrylamide]	91%	> 0.1 µM
